The test system of this experiment is Myc. As to the kind of experiment: Myc inhibition assay: Myc expression per cell by anti-Myc immunofluorescence, high-content imaging. In kind it is cell-based, human (patient-derived medulloblastoma xenograft cells). The settings on record: medulloblastoma PDX cells, 4 h. In a few lines: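 Cells from Myc-driven medulloblastoma patient-derived orthotopic xenografts, propagated only in NSG mouse cerebellum, were dissociated and plated in serum-free medium. After overnight recovery, compounds were applied for 4 hours; cells were then fixed, stained for Myc and DAPI, and per-cell Myc quantified by high-content imaging to derive IC50.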
A general note: In xenograft studies the graft and the host belong to different species.

Setting [1] is: Table 1, read-out: IC50 (Myc inhibition).
[2] abbreviates: Table 2, read-out: MYC Inhibition IC50.

Structures are written as SMILES. Like-named read-outs stand apart in the source and are kept apart here.

The term IC50 denotes the concentration that inhibits the measured activity by half. With `Oc1cncc(-c2ccnc(Nc3cccc(F)c3)n2)c1` [Compound 200, 5-(2-((3-fluorophenyl)amino)pyrimidin-4-yl)pyridin-3-ol], the IC50 runs as follows: under setting [1], 1 to 10 µM; under setting [2], 1 to 10 µM.
As to `COc1ccc(-c2ccnc(Nc3cccc(F)c3)n2)nc1` [Compound 174, N-(3-fluorophenyl)-4-(5-methoxypyridin-2-yl)pyrimidin-2-amine], the IC50 lay within 10 to 100 µM under setting [1] and 10 to 100 µM under setting [2].
For the compound `CN(c1cccc(Nc2nccc(-c3ccc4[nH]cnc4c3)n2)c1)S(=O)(=O)c1ccccc1` [Compound 262, N-(3-((4-(1H-benzo[d]imidazol-5-yl)pyrimidin-2-yl)amino)phenyl)-N-methylbenzenesulfonamide], the IC50 by setting is: under setting [1], 1 to 10 µM; under setting [2], 1 to 10 µM.
With `Cn1cnc2cc(-c3ccnc(Nc4cccc(C(F)(F)F)c4)n3)ccc21` [Compound 34, 4-(1-methyl-1H-benzo[d]imidazol-5-yl)-N-(3-(trifluoromethyl)phenyl)pyrimidin-2-amine], the IC50 is 1 to 10 µM under setting [1] and 1 to 10 µM under setting [2].
Regarding `COc1cc(-c2ccnc(Nc3cncc(F)c3)n2)ccn1` [Compound 146, N-(5-fluoropyridin-3-yl)-4-(2-methoxypyridin-4-yl)pyrimidin-2-amine], the IC50 under setting [1] lay in the range of 1 to 10 µM and the IC50 under setting [2] was in the range of 1 to 10 µM.
As for `Clc1cccc(Nc2nccc(-c3ccc4[nH]cnc4c3)n2)c1` [Compound 69, 4-(1H-benzo[d]imidazol-5-yl)-N-(3-chlorophenyl)pyrimidin-2-amine], the IC50 under setting [1] is < 0.2 µM and the IC50 under setting [2] was < 0.2 µM.
`c1coc(CNc2nccc(-c3ccc4[nH]cnc4c3)n2)c1` [Compound 85, 4-(1H-benzo[d]imidazol-5-yl)-N-(furan-2-ylmethyl)pyrimidin-2-amine]: the IC50 under setting [1] was 1 to 10 µM and the concentration for half-maximal inhibition (IC50) under setting [2] was 1 to 10 µM.
As for `Cn1cnc2ccc(-c3ccnc(Nc4cccc(C(F)(F)F)c4)n3)cc21` [Compound 41, 4-(1-methyl-1H-benzo[d]imidazol-6-yl)-N-(3-(trifluoromethyl)phenyl)pyrimidin-2-amine], the IC50 by setting is: under setting [1], < 0.2 µM; under setting [2], < 0.2 µM.
In the case of `Oc1ccc(Oc2ccnc(Nc3cccc(F)c3)n2)cn1` [Compound 110, 5-((2-((3-fluorophenyl)amino)pyrimidin-4-yl)oxy)pyridin-2-ol], the IC50 runs as follows: under setting [1], 1 to 10 µM; under setting [2], 1 to 10 µM.
With `c1cc(-c2ccc3[nH]cnc3c2)nc(Nc2cnoc2)n1` [Compound 56, N-(4-(1H-benzo[d]imidazol-5-yl)pyrimidin-2-yl)isoxazol-4-amine], the half-inhibitory concentration (IC50) reads like this: under setting [1], 0.2 to 1 µM; under setting [2], 0.2 to 1 µM.
`Fc1cccc(Nc2nccc(-c3ccc4[nH]ncc4c3)n2)c1` [Compound 165, N-(3-Fluorophenyl)-4-(1H-indazol-5-yl)pyrimidin-2-amine]: the IC50 under setting [1] was 1 to 10 µM and the IC50 under setting [2] is 1 to 10 µM.
With `FC(F)(F)c1cccc(Nc2cc(-c3ccc4nc[nH]c4c3)ccn2)n1` [Compound 281, N-(4-(1H-benzo[d]imidazol-6-yl)pyridin-2-yl)-6-(trifluoromethyl)pyridin-2-amine], the IC50 was < 0.2 µM under setting [1] and < 0.2 µM under setting [2].
On to `COc1ccc(Nc2ccnc(Nc3cccc(F)c3)n2)cn1` [Compound 108, N^2-(3-fluorophenyl)-N^4-(6-methoxypyridin-3-yl)pyrimidine-2,4-diamine], for which the IC50 was in the range of 1 to 10 µM under setting [1] and 1 to 10 µM under setting [2].
Turning to `Oc1cncc(-c2ccnc(Nc3cccc(C(F)(F)F)c3)n2)c1` [Compound 201, 5-(2-((3-(trifluoromethyl)phenyl)amino)pyrimidin-4-yl)pyridin-3-ol], the IC50 was 1 to 10 µM under setting [1] and 1 to 10 µM under setting [2].
Regarding `Fc1cccc(Nc2nccc(-c3ccc4[nH]cnc4c3)n2)c1` [Compound 199, 4-(1H-benzo[d]imidazol-5-yl)-N-(3-fluorophenyl)pyrimidin-2-amine], the IC50 reads like this: under setting [1], < 0.2 µM; under setting [2], < 0.2 µM.
As for `Oc1cc(-c2ccnc(Sc3ccccc3)n2)ccn1` [Compound 231, 4-(2-(phenylthio)pyrimidin-4-yl)pyridin-2-ol], the IC50 lay within 10 to 100 µM under setting [1] and 10 to 100 µM under setting [2].
Take `O=S(=O)(Nc1ccccc1)c1cccc(Nc2nccc(-c3ccc4[nH]cnc4c3)n2)c1` [Compound 23, 3-((4-(1H-benzo[d]imidazol-5-yl)pyrimidin-2-yl)amino)-N-phenylbenzenesulfonamide]: the IC50 reads like this: under setting [1], 1 to 10 µM; under setting [2], 1 to 10 µM.
For `CC(C)Nc1nccc(-c2ccc3[nH]cnc3c2)n1` [Compound 104, 4-(1H-benzo[d]imidazol-5-yl)-N-isopropylpyrimidin-2-amine], the IC50 under setting [1] was in the range of 1 to 10 µM and the IC50 under setting [2] fell in the range of 1 to 10 µM.
Take `Oc1cc(-c2ccnc(Nc3cncc(C(F)(F)F)c3)n2)ccn1` [Compound 154, 4-(2-((5-(trifluoromethyl)pyridin-3-yl)amino)pyrimidin-4-yl)pyridin-2-ol]: the IC50 under setting [1] was in the range of 0.2 to 1 µM and the IC50 under setting [2] was 0.2 to 1 µM.
Consider `Cn1nccc1CNc1nccc(-c2ccc3[nH]cnc3c2)n1` [Compound 82, 4-(1H-benzo[d]imidazol-5-yl)-N-((1-methyl-1H-pyrazol-5-yl)methyl)pyrimidin-2-amine], for which the IC50 under setting [1] is 1 to 10 µM and the IC50 under setting [2] was 1 to 10 µM.
As to `CC(C)(C)n1cc(Nc2nccc(-c3ccc4nc[nH]c4c3)n2)cn1` [Compound 276, 4-(1H-benzo[d]imidazol-6-yl)-N-(1-(tert-butyl)-1H-pyrazol-4-yl)pyrimidin-2-amine], the IC50 is, setting by setting: under setting [1], 0.2 to 1 µM; under setting [2], 0.2 to 1 µM.
Turning to `c1cc(-c2ccc3[nH]cnc3c2)nc(NC2CCCCC2)n1` [Compound 96, 4-(1H-benzo[d]imidazol-5-yl)-N-cyclohexylpyrimidin-2-amine], the IC50 runs as follows: under setting [1], 1 to 10 µM; under setting [2], 1 to 10 µM.
As for `c1ccc(-c2cccc(Nc3nccc(-c4ccc5[nH]cnc5c4)n3)c2)cc1` [Compound 70, N-([1,1′-biphenyl]-3-yl)-4-(1H-benzo[d]imidazol-5-yl)pyrimidin-2-amine], the IC50 runs as follows: under setting [1], < 0.2 µM; under setting [2], < 0.2 µM.
Turning to `CN(c1ccccc1)c1nccc(-c2ccnc(O)c2)n1` [Compound 221, 4-(2-(methyl(phenyl)amino)pyrimidin-4-yl)pyridin-2-ol], the IC50 was in the range of 10 to 100 µM under setting [1] and 10 to 100 µM under setting [2].
For the compound `Cc1ccc(C)n1-c1cccc(Nc2nccc(-c3ccc4[nH]cnc4c3)n2)c1` [Compound 4, 4-(1H-benzo[d]imidazol-5-yl)-N-(3-(2,5-dimethyl-1H-pyrrol-1-yl)phenyl)pyrimidin-2-amine], the IC50 under setting [1] lay within 1 to 10 µM and the IC50 under setting [2] lay within 1 to 10 µM.
Take `COc1cc(-c2ccnc(Nc3ccnc(C(F)(F)F)c3)n2)ccn1` [Compound 157, 4-(2-methoxypyridin-4-yl)-N-(2-(trifluoromethyl)pyridin-4-yl)pyrimidin-2-amine]: the IC50 reads like this: under setting [1], 10 to 100 µM; under setting [2], 10 to 100 µM.
In the case of `OCCOc1cccc(Nc2nccc(-c3ccnc(O)c3)n2)c1` [Compound 128, 4-(2-((3-(2-hydroxyethoxy)phenyl)amino)pyrimidin-4-yl)pyridin-2-ol], the IC50 runs as follows: under setting [1], 1 to 10 µM; under setting [2], 1 to 10 µM.
In the case of `COc1cc(-c2ccnc(Oc3ccccc3)n2)ccn1` [Compound 235, 4-(2-methoxypyridin-4-yl)-2-phenoxypyrimidine], the IC50 by setting is: under setting [1], 10 to 100 µM; under setting [2], 10 to 100 µM.
For the compound `COc1cc(-c2ccnc(Nc3cncnc3)n2)ccn1` [Compound 179, 4-(2-methoxypyridin-4-yl)-N-(pyrimidin-5-yl)pyrimidin-2-amine], the half-maximal inhibitory concentration (IC50) under setting [1] was 10 to 100 µM and the IC50 under setting [2] was in the range of 10 to 100 µM.
In the case of `COc1ccc(-c2ccnc(Nc3cccc(C(F)(F)F)c3)n2)cn1` [Compound 212, 4-(6-methoxypyridin-3-yl)-N-(3-(trifluoromethyl)phenyl)pyrimidin-2-amine], the IC50 fell in the range of 1 to 10 µM under setting [1] and 1 to 10 µM under setting [2].
In the case of `Oc1cc(-c2ccnc(Nc3ncccn3)n2)ccn1` [Compound 184, 4-(2-(pyrimidin-2-ylamino)pyrimidin-4-yl)pyridin-2-ol], the 50% inhibitory concentration (IC50) was in the range of 10 to 100 µM under setting [1] and 10 to 100 µM under setting [2].
As for `CC(C)(C)NS(=O)(=O)c1cccc(Nc2nccc(-c3ccc4[nH]cnc4c3)n2)c1` [Compound 32, 3-((4-(1H-benzo[d]imidazol-5-yl)pyrimidin-2-yl)amino)-N-(tert-butyl)benzenesulfonamide], the IC50 lay in the range of 0.2 to 1 µM under setting [1] and 0.2 to 1 µM under setting [2].
On to `Oc1cc(-c2ccnc(Nc3cccc(C(F)(F)F)n3)n2)ccn1` [Compound 167, 4-(2-((6-(trifluoromethyl)pyridin-2-yl)amino)pyrimidin-4-yl)pyridin-2-ol], for which the IC50 under setting [1] was 10 to 100 µM and the IC50 under setting [2] was in the range of 10 to 100 µM.
For the compound `FC(F)(F)c1cncc(Nc2nccc(-c3cnc4nc[nH]c4c3)n2)c1` [Compound 106, 4-(1H-imidazo[4,5-b]pyridin-6-yl)-N-(5-(trifluoromethyl)pyridin-3-yl)pyrimidin-2-amine], the IC50 was < 0.2 µM under setting [1] and < 0.2 µM under setting [2].
Regarding `Oc1ccnc(-c2ccnc(Nc3cccc(F)c3)n2)c1` [Compound 182, 2-(2-((3-fluorophenyl)amino)pyrimidin-4-yl)pyridin-4-ol], the IC50 lay within 1 to 10 µM under setting [1] and 1 to 10 µM under setting [2].
As for `N#Cc1cccc(Nc2nccc(-c3ccc4[nH]cnc4c3)n2)c1` [Compound 94, 3-((4-(1H-benzo[d]imidazol-5-yl)pyrimidin-2-yl)amino)benzonitrile], the IC50 reads like this: under setting [1], 1 to 10 µM; under setting [2], 1 to 10 µM.
Turning to `COc1cc(-c2ccnc(Cc3ccccc3)n2)ccn1` [Compound 230, 2-Benzyl-4-(2-methoxypyridin-4-yl)pyrimidine], the IC50 by setting is: under setting [1], 10 to 100 µM; under setting [2], 10 to 100 µM.
Take `COc1ccc(-c2ccnc(Nc3ccccc3)n2)cn1` [Compound 239, 4-(6-methoxypyridin-3-yl)-N-phenylpyrimidin-2-amine]: the IC50 fell in the range of 10 to 100 µM under setting [1] and 10 to 100 µM under setting [2].

These data come from patent publication US20260356817A1, “AMINOPYRIMIDINE AND AMINOTRIAZINE DERIVATIVES AS MYC PROTEIN MODULATORS” (Sanford Burnham Prebys Medical Discovery Institute, priority 2022, published 2026).
